Experimental data as given in patent US10889834B2, “Methods and compositions for enhancing targeted transgene integration” (Sangamo BioSciences, Inc., priority 2014, dated 2021).

Tested on: Hepa1-6 cells
Assay: Factor IX production by ELISA in Hepa1-6 cells treated with topoisomerase inhibitor and FIX donor AAV (integration at albumin locus)
Type: cell-based, mouse
Settings: 0.5-5 uM inhibitor, FIX measured at days 4 and 7
Description: For instance, one-hundred thousand Hepa1-6 cells were seeded per well of a 24-well dish and grown until 70% confluent in DMEM+10% FBS. […] Cells were then transfected with one of two Factor IX (FIX)-containing adeno-associated viruses (AAVs) donors (e.g., AAV2/6 vectors at 6e10 vg per sample) and Factor IX production on days 0-4 (day 4) and days 5-7 (day 7) assayed by ELISA.
The FIX donor AAVs contain homology arms (complementary to the 3′ end of the mouse albumin gene) flanking an albumin 3′ intron splice acceptor-albumin 3′ exon-2A-Factor IX cassette. In one instance, the Factor IX cassette was positioned in the forward orientation (F), allowing Factor IX to be produced if the DNA was integrated into the Albumin locus through HDR by the use of the homology arms.
Therefore, we determined the stimulation of Factor IX integration/expression that is specific to integration at the albumin gene in the proper orientation; this number is roughly equal to the Factor IX produced from the forward-orientation virus minus the Factor IX produced by the reverse-orientation virus.

Compound: CC[C@@]1(O)C(=O)OCc2c1cc1n(c2=O)Cc2cc3ccccc3nc2-1 [camptothecin]
- FIX protein (forward-orientation AAV donor) (human FIX AAV donor in forward (F) orientation): dose-dependent increase in FIX protein
- FIX protein (reverse-orientation AAV donor) (human FIX AAV donor in reverse (R) orientation): generally not
